Test results as given in patent US20030060498A1, “5-arylsulfonyl indoles useful for treating disease” (priority 2001, published 2003).
Structures can show the parent of a compound that is named as a salt. Where two headings read alike, the source gives them in different places.

Assays:
[1] = biological target: T1, cloned human 5-HT6 receptor (Homo sapiens, UniProt P50406); experiment: 5-HT6 receptor binding assay ([3H]-LSD radioligand, SPA beads)
T1 construct: host or cells: HeLa cells (G-418 selection); membrane preparation
T1 sequence (P50406 whole entry): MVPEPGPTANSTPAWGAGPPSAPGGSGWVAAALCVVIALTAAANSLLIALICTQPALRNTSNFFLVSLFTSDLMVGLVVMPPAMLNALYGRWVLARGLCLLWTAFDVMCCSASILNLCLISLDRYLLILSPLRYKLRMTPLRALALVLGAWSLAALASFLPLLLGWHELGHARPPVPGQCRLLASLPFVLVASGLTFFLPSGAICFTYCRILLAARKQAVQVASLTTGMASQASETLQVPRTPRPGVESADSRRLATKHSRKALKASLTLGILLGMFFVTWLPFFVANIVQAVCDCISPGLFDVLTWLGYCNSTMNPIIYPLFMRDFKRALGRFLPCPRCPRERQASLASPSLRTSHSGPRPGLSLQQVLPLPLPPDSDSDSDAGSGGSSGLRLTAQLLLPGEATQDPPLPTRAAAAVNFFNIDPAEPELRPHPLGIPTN
Procedure: 5-HT6 Receport Binding Assay
Growth of Cells and Membrane Preparation:
Hela cells containing the cloned human 5-HT6 receptor were acquired from Dr. David R. Sibley's laboratory in National Institute of Health (see Sibley, D. R., J. Neurochemistry, 66, 47-56, 1996). Cells were grown in high glucose Dulbecco's modified Eagle's medium, supplemented with L-glutamine, 0.5% sodium pyruvate, 0.3% penicillin-streptomycin, 0.025% G-418 and 5% Gibco fetal bovine serum and then were harvested, when confluent, in cold phosphate buffered saline.
Harvested intact cells were washed once in cold phosphate-buffered saline. The cells were pelleted and resuspended in 100 ml of cold 50 mM Tris, 5 mM EDTA and 5 mM EGTA, pH 7.4. Homogenization was with a Vir Tishear generator, 4 cycles for 30 seconds each at setting 50. The homogenized cells were centrifuged at […] for 10 minutes and the supernatant was removed. The pellet was resuspended in 100 ml of the above buffer and rehomogenized for 2 cycles. The rehomogenized cells were then centrifuged at […] for 10 minutes and the supernatant was removed. The combined supernatant (200ml) was centrifuged at 23,000 RPM (80,000×g) for 1 hour in a Beckman Rotor (42.1 Ti). The membrane pellet was resuspended in […] of assay buffer containing HEPES 20 mM, MgCl2 10 mM, NaCl 150 mM, EDTA 1 mM, pH 7.4 and stored frozen in aliqouts at −70° C.
5-HT6 Receptor Binding Assay
The radioligand binding assay used [^3H]-lysergic acid diethylamide (LSD). The assay was carried out in Wallac 96-well sample plates by the addition of 11 μl of the test sample at the appropriate dilution (the assay employed 11 serial concentrations of samples run in duplicate), 11 μl of radioligand, and 178 μl of a washed mixture of WGA-coated SPA beads and membranes in binding buffer. The plates were shaken for about 5 minutes and then incubated at room temperature for 1 hour. The plates were then loaded into counting cassettes and counted in a Wallac MicroBeta Trilux scintillation counter.
Binding Constant (Ki) Determination
Eleven serial dilutions of test compounds were distributed to assay plates using the PE/Cetus Pro/Pette pipetter. These dilutions were, followed by radioligand and the bead-membrane mixture prepared as described above. The specifically bound cpm obtained were fit to a one-site binding model using GraphPad Prism ver. 3.0. Estimated IC50 values were converted to Ki values using the Cheng-Prusoff equation (Cheng, Y. C. et al., Biochem. Pharmacol., 22, 3099-108, 1973).

Ki ([1]; [3H]-LSD, membranes of Hela cells containing the cloned human 5-HT6 receptor, IC50 converted by Cheng-Prusoff, average, read-out: Ki)	SMILES	melting point	Ki [1]
–	Cc1[nH]c2ccc(S(=O)(=O)c3cc(F)cc(F)c3)cc2c1CCN.Cl [Example 18, 2-{5-[(3,5-difluorophenyl)sulfonyl]-2-methyl-1H-indol-3-yl}ethanamine Hydrochloride]	> 280 °C	66 nM
–	COc1cccc(S(=O)(=O)c2ccc3c(c2)c(CCN)c(C)n3C)c1.Cl [Example 16, 2-{5-[(3-methoxyphenyl)sulfonyl]-1,2-dimethyl-1H-indol-3-yl}ethanamine Hydrochloride]	269.5 to 272.4 °C	3.4 nM
–	CNCCc1c(C)n(C)c2ccc(S(=O)(=O)c3cccc(OC)c3)cc12.Cl [Example 17, 2-{5-[(3-methoxyphenyl)sulfonyl]-1,2-dimethyl-1H-indol-3-yl}-N-methylethanamine Hydrochloride]	192.4 to 196 °C	10 nM
146 nM	Cc1[nH]c2ccc(S(=O)(=O)c3ccc(C(F)(F)F)cc3)cc2c1CCN.Cl [Example 12, 2-(2-methyl-5-{[4-(trifluoromethyl)phenyl]sulfonyl}-1H-indol-3-yl)ethanamine Hydrochloride]	> 275 °C	–
–	Cc1[nH]c2ccc(S(=O)(=O)c3cccc4ccccc34)cc2c1CCN (as salt: hydrochloride) [Example 21, 2-[2-methyl-5-(1-naphthylsulfonyl)-1H-indol-3-yl]ethanamine Hydrochloride]	> 280 °C	–
–	Cc1[nH]c2ccc(S(=O)(=O)c3cccc4ccccc34)cc2c1CCN [Example 21, 2-[2-methyl-5-(1-naphthylsulfonyl)-1H-indol-3-yl]ethanamine Hydrochloride]	–	0.9 nM
–	CNCCc1c(C)n(C)c2ccc(S(=O)(=O)c3ccc(C)cc3)cc12.Cl [Example 11, 2-{1,2-dimethyl-5-[(4-methylphenyl)sulfonyl]-1H-indol-3-yl}-N-methylethanamine Hydrochloride]	259.7 to 262.3 °C	15 nM
–	CNCCc1c(C)n(C)c2ccc(S(=O)(=O)c3cccc4ccccc34)cc12.Cl	> 141 °C (dec.)	–
–	COc1cccc(S(=O)(=O)c2ccc3[nH]c(C)c(CCN)c3c2)c1.Cl [Example 15, 2-{5-[(3-methoxyphenyl)sulfonyl]-2-methyl-1H-indol-3-yl}ethanamine Hydrochloride]	300 to 302 °C	209 nM
–	Cc1c(CCN)c2cc(S(=O)(=O)c3cc(F)cc(F)c3)ccc2n1C.Cl [Example 19, 2-{5-[(3,5-difluorophenyl)sulfonyl]-1,2-dimethyl-1H-indol-3-yl}ethanamine Hydrochloride]	288.6 to 290.5 °C	5.6 nM
–	Cc1c(CCN(C)C)c2cc(S(=O)(=O)c3ccccc3)ccc2n1C [Example 6, 2-[1,2-dimethyl-5-(phenylsulfonyl)-1H-indol-3-yl]-N,N-dimethylethanamine]	169.6 to 171.9 °C	1.8 nM
–	Cc1c(CCN)c2cc(S(=O)(=O)c3ccc(C(F)(F)F)cc3)ccc2n1C.Cl [Example 13, 2-(1,2-dimethyl-5-{[4-(trifluoromethyl)phenyl]sulfonyl}-1H-indol-3-yl)ethanamine Hydrochloride]	> 280 °C	36 nM
–	Cc1[nH]c2ccc(S(=O)(=O)c3ccccc3)cc2c1CCN.Cl [Example 2, 2-[2-methyl-5-(phenylsulfonyl)-1H-indol-3-yl]ethanamine Hydrochloride]	> 280 °C	38 nM
–	Cc1ccc(S(=O)(=O)c2ccc3[nH]c(C)c(CCN)c3c2)cc1.Cl [Example 9, 2-{2-methyl-5-[(4-methylphenyl)sulfonyl]-1H-indol-3-yl}ethanamine Hydrochloride]	> 275 °C	308 nM
–	Cc1ccc(S(=O)(=O)c2ccc3c(c2)c(CCN)c(C)n3C)cc1.Cl [Example 10, 2-{1,2-dimethyl-5-[(4-methylphenyl)sulfonyl]-1H-indol-3-yl}ethanamine Hydrochloride]	168 to 172 °C	22 nM
–	Cl.Cn1cc(CCN)c2cc(S(=O)(=O)c3ccccc3)ccc21 [Example 1, 2-[1-methyl-5-(phenylsulfonyl)-1H-indol-3-yl]ethanamine Hydrochloride]	285.3 to 292 °C	1.5 nM
–	Cc1ccc(S(=O)(=O)c2ccc3c(c2)c(CCN)cn3C)cc1.Cl [Example 7, 2-{1-methyl-5-[(4-methylphenyl)sulfonyl]-1H-indol-3-yl}ethanamine Hydrochloride]	186.3 to 190.2 °C	3.3 nM
–	Cc1c(CCN)c2cc(S(=O)(=O)c3ccccc3)ccc2n1C.Cl [Example 4, 2-[1,2-dimethyl-5-(phenylsulfonyl)-1H-indol-3-yl]ethanamine Hydrochloride]	155 to 158.3 °C	4 nM
–	CNCCc1c(C)n(C)c2ccc(S(=O)(=O)c3ccc(C(F)(F)F)cc3)cc12.Cl [Example 14, 2-(1,2-dimethyl-5-{[4-(trifluoromethyl)phenyl]sulfonyl}-1H-indol-3-yl)-N-methylethanamine Hydrochloride]	189.1 to 193.7 °C	18 nM
–	CNCCc1c(C)n(C)c2ccc(S(=O)(=O)c3cc(F)cc(F)c3)cc12.Cl [Example 20, 2-{5-[(3,5-difluorophenyl)sulfonyl]-1,2-dimethyl-1H-indol-3-yl}-N-methylethanamine Hydrochloride]	253.5 to 257.8 °C	4.6 nM
–	CNCCc1c(C)[nH]c2ccc(S(=O)(=O)c3ccccc3)cc12 [Example 3, N-methyl-2-[2-methyl-5-(phenylsulfonyl)-1H-indol-3-yl]ethanamine]	164.6 to 166 °C	37 nM
–	CNCCc1cn(C)c2ccc(S(=O)(=O)c3ccc(C)cc3)cc12.Cl [Example 8, N-methyl-2-{1-methyl-5-[(4-methylphenyl)sulfonyl]-1H-indol-3-yl}ethanamine hydrochloride]	275 to 277.6 °C	7.6 nM
–	Cc1c(CCN)c2cc(S(=O)(=O)c3cccc4ccccc34)ccc2n1C.Cl [Example 22, 2-[1,2-dimethyl-5-(1-naphthylsulfonyl)-1H-indol-3-yl]ethanamine Hydrochloride]	> 175 °C (dec.)	3.1 nM
–	CNCCc1c(C)n(C)c2ccc(S(=O)(=O)c3ccccc3)cc12.Cl [Example 5, 2-[1,2-dimethyl-5-(phenylsulfonyl)-1H-indol-3-yl]-N-methylethanamine Hydrochloride]	266.8 to 268.2 °C	9 nM
